Counter-ions that a name gives are not always drawn. Like-named read-outs stand apart in the source and are kept apart here.
Assays:
[1] = tested on: ARID1A-KO HCT116 cells; assay: Drug library screen, cell viability (CellTiter-Glo); type: cell-based, human; conditions: Homo sapiens, HCT-116, 120 h, read-out: Cell viability, KO
Summary of the method: (§1)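 ARID1A-WT and ARID1A-KO HCT116 cells screened against the library; viability read after 5 days by CellTiter-Glo luminescence, expressed relative to DMSO-treated cells. Hits: KO viability below 40% with WT viability above 80%.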

[2] = as above; type: cell-based, human; conditions: human; HCT116 ARID1A-WT; 10 μM for 5 days; relative to cells treated with solvent (DMSO); read-out: Cell viability, WT
Summary of the method: as §1

[3] = HCT116 ARID1A-KO, 10 μM for 5 days, relative to cells treated with solvent (DMSO)

Structure (SMILES)	viability at 10 µM [1, 3]	viability at 5 days, 10 μM [2]	viability [2]	viability at 10 µM [1]
O=c1cc(-c2ccccc2)oc2cc(O)c(O)c(O)c12 [Baicalein]	93.7%	94.6%	–	–
NC(=O)c1ccccc1 [Benzamide]	134%	188%	–	–
CC(C)C[C@H](NC(=O)[C@@H](O)[C@H](N)Cc1ccccc1)C(=O)O [Bestatin]	66.2%	68.6%	–	–
Cc1c[nH]c(-c2cnc(NCCNc3ccc(C#N)cn3)nc2-c2ccc(Cl)cc2Cl)n1 [CT99021]	73.5%	63.8%	–	–
CC[C@@]1(O)C(=O)OCc2c1cc1n(c2=O)Cc2cc3ccccc3nc2-1 [Camptothecin]	4.03%	2.97%	–	–
C[C@@]12C(=O)OC(=O)[C@]1(C)[C@H]1CC[C@@H]2O1 [Cantharidin]	18.2%	–	26.2%	–
C/C=C/C/C=C/CCC(=O)[C@H]1O[C@H]1C(N)=O [Cerulenin]	68.6%	70%	–	–
CN1C(=O)[C@]2(Cc3cn([C@]45C[C@@]67SS[C@@](CO)(C(=O)N6[C@H]4Nc4ccccc45)N(C)C7=O)c4ccccc34)SS[C@@]1(CO)C(=O)N2C [Chetomin]	4.69%	–	4.21%	–
CCOC(=O)C(C)(C)Oc1ccc(Cl)cc1 [Clofibrate]	111%	110%	–	–
C[C@@H]1C[C@@H]([C@H](O)CC2CC(=O)NC(=O)C2)C(=O)[C@@H](C)C1 [Cycloheximide]	10.1%	–	9.33%	–
COc1c(C=O)c(O)cc2c1C(=O)c1ccccc1C2=O [Damnacanthal]	138%	185%	–	–
COc1cccc2c1C(=O)c1c(O)c3c(c(O)c1C2=O)C[C@@](O)(C(C)=O)C[C@@H]3O[C@H]1C[C@H](N)[C@H](O)[C@H](C)O1 [Daunorubicin, HCl]	–	5.21%	–	4.45%
NC1=N/C(=C2/CCNC(=O)c3[nH]ccc32)C(=O)N1 [Debromohymenialdisine (DBH), Debromohymenialdisine]	72.2%	62.9%	–	–
Nc1ncn([C@H]2C[C@H](O)[C@@H](CO)O2)c(=O)n1 [Decitabine]	30.4%	30.8%	–	–
CCCCCCCCCCC1=C(C)C(=O)C(OC)=C(OC)C1=O [Decylubiquinone]	100%	85.7%	–	–
OC[C@H]1NC[C@H](O)[C@@H](O)[C@@H]1O [Deoxynojirimycin]	121%	106%	–	–
CN(N=O)c1cc(O)ccc1O [Dephostatin]	60.2%	–	90.4%	–
Cc1cc(N)c2ccccc2[n+]1CCCCCCCCCC[n+]1c(C)cc(N)c2ccccc21 [Dequalinium]	5.24%	6.38%	–	–
C[C@@H]1C[C@H]2[C@@H]3CCC4=CC(=O)C=C[C@]4(C)[C@@]3(F)[C@@H](O)C[C@]2(C)[C@@]1(O)C(=O)CO [Dexamethasone]	162%	212%	–	–
O=c1c2ccccc2[nH]c(=S)n1CCN1CCC(=C(c2ccc(F)cc2)c2ccc(F)cc2)CC1 [Diacylglycerol kinase inhibitor II]	171%	141%	–	–
CC1=NS(=O)(=O)c2cc(Cl)ccc2N1 [Diazoxide]	115%	103%	–	–

Structure (SMILES)	viability at 10 µM [1, 3]	viability at 5 days, 10 μM [2]	viability [2]	viability at 10 µM [1]
COc1ccc([C@@H]2Sc3ccccc3N(CCN(C)C)C(=O)[C@@H]2OC(C)=O)cc1 [Diltiazem]	115%	102%	–	–
COc1cccc2c1C(=O)c1c(O)c3c(c(O)c1C2=O)C[C@@](O)(C(=O)CO)C[C@@H]3O[C@H]1C[C@H](N)[C@H](O)[C@H](C)O1 [Doxorubicin, HCl]	4.14%	4.81%	–	–
Cc1cc(Nc2cc(N3CCN(C)CC3)nc(/C=C/c3ccccc3)n2)n[nH]1 [ENMD-2076]	10.1%	9.16%	–	–
O=c1oc2c(O)c(O)cc3c(=O)oc4c(O)c(O)cc1c4c23 [Ellagic acid]	161%	127%	–	–
COc1cc([C@@H]2c3cc4c(cc3[C@@H](O[C@@H]3O[C@@H]5CO[C@@H](C)O[C@H]5[C@H](O)[C@H]3O)[C@H]3COC(=O)[C@H]23)OCO4)cc(OC)c1O [Etoposide (VP-16), Etoposide]	27.4%	30.6%	–	–
C=CC[C@@H]1/C=C(\C)C[C@H](C)C[C@H](OC)[C@H]2O[C@@](O)(C(=O)C(=O)N3CCCC[C@H]3C(=O)O[C@H](/C(C)=C/[C@@H]3CC[C@@H](O)[C@H](OC)C3)[C@H](C)[C@@H](O)CC1=O)[C@H](C)C[C@@H]2OC [FK-506]	130%	173%	–	–
CC(C)(C)NC(=O)[C@H]1CC[C@H]2[C@@H]3CC[C@H]4NC(=O)C=C[C@]4(C)[C@H]3CC[C@]12C [Finasteride]	108%	99.6%	–	–
CC(C)C(=O)Nc1ccc([N+](=O)[O-])c(C(F)(F)F)c1 [Flutamide]	126%	163%	–	–
C[C@]12CCC(=O)C(O)=C1CC[C@@H]1[C@@H]2CC[C@]2(C)C(=O)CC[C@@H]12 [Formestane]	69.5%	–	108%	–
CO[C@@H]1[C@H](OC(=O)/C=C/C=C/C=C/C=C/C(=O)O)CC[C@]2(CO2)[C@H]1[C@@]1(C)O[C@@H]1CC=C(C)C [Fumagillin]	–	96.4%	–	82.2%
CNC(=O)[C@H](Cc1c[nH]c2ccccc12)NC(=O)[C@@H](CC(=O)NO)CC(C)C [GM 6001]	123%	188%	–	–
O=c1c(-c2ccc(O)cc2)coc2cc(O)cc(O)c12 [Genistein]	118%	–	173%	–
COc1ccc(Cl)cc1C(=O)NCCc1ccc(S(=O)(=O)NC(=O)NC2CCCCC2)cc1 [Glibenclamide]	109%	108%	–	–
O=S(=O)(c1cccc2cnccc12)N1CCCNCC1 [HA1077]	73.8%	155%	–	–
NC(=O)NO [Hydroxyurea]	117%	157%	–	–
C[C@H](CCC(=O)O)C[C@H](C)C[C@H](C)C(=O)/C=C(\O)[C@H](C)C[C@H](C)C/C=C/[C@@H](C)[C@@H](O)[C@@H](C)[C@@H](O)C[C@@H]1CC[C@@](C)([C@H]2CC[C@@](C)([C@@H](C)O)O2)O1 [Ionomycin]	35.9%	–	31.8%	–
CC1=C2C(=O)[C@H]3[C@@H](CC=C4C[C@@H](O)CC[C@@]43C)[C@@H]2CC[C@]12O[C@@H]1C[C@H](C)CN[C@H]1[C@H]2C [Jervine]	90.1%	–	74.4%	–
O=C1Cc2c([nH]c3ccc(Br)cc23)-c2ccccc2N1 [Kenpaullone]	35%	66.2%	–	–
CC(=O)N[C@@H](CSC(=O)[C@]1([C@@H](O)C(C)C)NC(=O)[C@H](C)[C@@H]1O)C(=O)O [Lactacystin]	26.1%	32.6%	–	–
O=C(O)c1nn(Cc2ccc(Cl)cc2Cl)c2ccccc12 [Lonidamine]	116%	98.4%	–	–
CC[C@H](C)C(=O)O[C@H]1C[C@@H](C)C=C2C=C[C@H](C)[C@H](CC[C@@H]3C[C@@H](O)CC(=O)O3)[C@H]21 [Lovastatin]	85.2%	132%	–	–

Source: patent US20220087987A1, “A METHOD FOR TREATING SWI/SNF COMPLEX-DEFICIENT CANCERS COMPRISING GLUTATHIONE (GSH) METABOLIC PATHWAY INHIBITOR” (National Cancer Center, priority 2018, published 2022)
